{
  "source": "patent US20260007634A1",
  "about": "“PHARMACEUTICAL COMPOSITIONS FOR THE TREATMENT OF ALLERGIC DISEASES” (KINKI UNIVERSITY, priority 2022, published 2026)",
  "key": {"TNFα": {"system": "TNFα", "assay": "LPS-stimulated TNFα secretion in B cells (ELISA)", "type": "cell-based, mouse", "conditions": "10 μM compound, 10 μg/mL LPS 2 days, control 15.13, LPS 296.31", "experimental": "Mouse B cells were used to examine the inhibition of compounds on TNFα secretion in LPS stimulation.\nMouse B cells were cultured in RPMI 1640 medium for 1 day. Then, 10 μM mangiferin 8a and 10 μM norathyriol were added to B cells, and after 1 day of culture, 10 μg/mL of LPS was added to each, followed by 2 days of culture.\nThus, the samples were divided into “control” with no treatment, “10 μg/mL LPS+10 μM mangiferin 8a” to which 10 μg/mL LPS and 10 μM mangiferin 8a were added, and “10 μg/mL LPS+10 μM norathyriol” to which 10 μg/mL LPS and 10 μM norathyriol were added and only 10 μg/mL LPS was added (“10 μg/L LPS”).\nAfter these samples were incubated for 2 days, the culture supernatant was collected and TNFα secretion was measured by enzyme-linked immunosorbent assay (ELISA). The mouse TNFα ELISA kit (R&D) was used for this measurement."}, "NIK": {"target": "T1, NIK (Mus musculus, UniProt Q9WUL6)", "T1 construct": "Proteins were extracted with cell lysate and used as samples; endogenous in cells; host or cells: primary splenic B cells from 6-week-old male Balb/c mice", "T1 sequence (Q9WUL6 whole entry)": "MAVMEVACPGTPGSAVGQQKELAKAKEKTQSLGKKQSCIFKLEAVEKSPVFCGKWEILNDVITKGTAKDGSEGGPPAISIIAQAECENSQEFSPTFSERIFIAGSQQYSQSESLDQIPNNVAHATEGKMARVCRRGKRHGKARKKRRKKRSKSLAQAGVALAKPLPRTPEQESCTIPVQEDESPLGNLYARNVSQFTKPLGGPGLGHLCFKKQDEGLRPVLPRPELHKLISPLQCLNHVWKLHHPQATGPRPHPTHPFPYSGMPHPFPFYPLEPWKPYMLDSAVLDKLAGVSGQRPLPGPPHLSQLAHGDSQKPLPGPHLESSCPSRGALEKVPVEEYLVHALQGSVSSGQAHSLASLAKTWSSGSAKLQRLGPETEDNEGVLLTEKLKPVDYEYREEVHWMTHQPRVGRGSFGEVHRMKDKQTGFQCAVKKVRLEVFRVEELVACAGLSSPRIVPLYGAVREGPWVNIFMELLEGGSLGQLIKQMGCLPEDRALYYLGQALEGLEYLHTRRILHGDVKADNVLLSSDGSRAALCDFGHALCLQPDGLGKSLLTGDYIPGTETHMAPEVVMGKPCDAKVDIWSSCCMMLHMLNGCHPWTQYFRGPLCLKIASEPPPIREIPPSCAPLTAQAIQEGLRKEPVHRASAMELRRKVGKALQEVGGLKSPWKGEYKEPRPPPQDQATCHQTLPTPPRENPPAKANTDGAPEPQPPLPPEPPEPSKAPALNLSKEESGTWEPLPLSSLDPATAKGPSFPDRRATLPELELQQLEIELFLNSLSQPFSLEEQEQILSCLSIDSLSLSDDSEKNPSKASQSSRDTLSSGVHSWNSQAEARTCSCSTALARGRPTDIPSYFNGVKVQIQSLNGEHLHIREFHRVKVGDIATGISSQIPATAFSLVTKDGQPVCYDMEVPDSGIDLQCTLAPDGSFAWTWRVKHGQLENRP", "assay": "BAFF-induced NIK activation in B cells (Western blotting, phospho-NIK)", "type": "cell-based", "experimental": "Spleens were harvested from 6-week-old male Balb/c mice and B cells were isolated. After isolation, the cells were seeded in […] dish and cultured in RPMI 1640 medium for 1 day and used as control. In addition, B cells were seeded into 100 mm^2 dish, and after 1 day of culture, 100 ng/mL BAFF was added and cultured for 1 h. Furthermore, B cells were seeded in […] dish, and after 1 day of culture, 100 μM mangiferin, 10 μM mangiferin 8a, 10 μM norathyriol, 20 μM 1,3,5,6-tetrahydroxyxanthone, 10 μM xanthohydrol, 10 μM of α-mangostin, and 10 μM of γ-mangostin were added to B cells, and after 23 h, 100 ng/mL BAFF was added to each, and the cells were incubated for 1 h. All were incubated at 37° C. and 5% CO2.\nProteins were extracted with cell lysate and used as samples. Each sample was transferred to a PVDF membrane after SDSPAGE and assayed with anti-phospho-NIK, anti-NIK, anti-NF-κB p52, anti-NF-κB p65 and anti-Lamin antibodies.\nThe antibody species is indicated in the vertical direction. Specifically, in the case of anti-phospho-NIK antibody (described as “Phospho-NIK”), anti-NIK antibody (described as “NIK”), anti-NF-κB p52 antibody (described as “NF-κB p52 nuclear”), anti-NF-κB p65 antibody (described as “NF-κB p65 nuclear”) and anti-Lamin antibody (described as “Lamin”)."}, "[1]": {"system": "B cells collected from mice", "assay": "BAFF-induced differentiation into mature B cells (IgM/IgD flow cytometry)", "type": "cell-based, mouse", "conditions": "100 ng/mL BAFF, 10 days, 100 μM mangiferin, 20 μM 1,3,5,6-tetrahydroxyxanthone, 10 μM others", "experimental": "B cells collected from mice were cultured in RPMI 1640 medium for 1 day. Then, 100 μM mangiferin, 10 μM mangiferin 8a, 10 μM norathyriol, 20 μM 1,3,5,6-tetrahydroxyxanthone, 10 μM xanthohydrol, 10 μM α-mangostin, 10 μM of γ-mangostin were added to B cell, and after 1 day of culture, 100 ng/mL of BAFF was added, followed by 10 days of culture. After 10 days of culture, cells were stained with anti-IgM and anti-IgD antibodies, markers of B cells, and the expression of IgM and IgD was measured using BD LSRFortessa. Note that IgM negative and IgD negative indicates pre-B cells, IgM positive and IgD negative indicates immature B cells, and IgM positive and IgD positive indicates mature B cells."}, "[2]": {"system": "Balb/c mice with ovalbumin-induced food allergy", "assay": "Frequency of diarrhea, ovalbumin-induced food allergy mice", "type": "in vivo, mouse", "conditions": "OVA food allergy; oral daily 14 days from day 14, 10 mg/kg (dexamethasone 2 mg/kg); measured day 28; vs vehicle group", "experimental": "A 0.2 mL dose of 10 μg ovalbumin (OVA) and 1 mg Alum mixture was administered to 6-week-old female Balb/c mice (Japan SLC Inc.) (day 0 of the example). Alum was used as an adjuvant. Seven days later, the Balb/c mice were immunized again with a 0.2 mL injection of the above mixture. Starting on day 14, mice were orally treated with 10 mg/kg of norathyriol, 10 mg/kg of mangiferin 8a, 10 mg/kg of tofacitinib (JAK inhibitor), 2 mg/kg of dexamethasone (steroid) and 10 mg/kg of olopatadine (antihistamine) daily for 14 consecutive days. Starting on day 14, 10 mg OVA was administered orally every other day […], and the frequency of diarrhea was measured after the final administration on day 28. Note that tofacitinib, dexamethasone, and olopatadine are currently in clinical use in food allergy and were used as control drugs in this example.\nThe group that was just immunized with OVA is called the subject group, the one that received norathyriol is called the norathyriol group, the one that received mangiferin 8a is called the mangiferin 8a group, the one that received tofacitinib is called the tofacitinib group, the one that received dexamethasone is called the dexamethasone group, and the one that received olopatadine is called the olopatadine group. Each group consisted of five animals."}, "[3]": {"system": "Monocytes collected from mice", "assay": "LPS-induced M1 macrophage activation (CD80 flow cytometry)", "type": "cell-based, mouse", "conditions": "10 μM compound, 10 μg/mL LPS, 10 days; vs LPS-added group", "experimental": "Monocytes collected from mice were cultured in RPMI 1640 medium for 1 day. Then, 10 μM mangiferin 8a and 10 μM norathyriol were added to Monocytes, and after 1 day of culture, 10 μg/mL of LPS was added, followed by 10 days of culture. After 10 days of culture, cells were stained with anti-CD11b and anti-F4/80 antibodies, markers of macrophages, and anti-CD80 antibody, marker of M1 macrophages, and CD80 (CD11b positive and F4/80 positive) expression was measured using BD LSRFortessa."}, "IL-4": {"system": "IL-4", "assay": "Auricular tissue IL-4 ELISA, atopic dermatitis mice", "type": "in vivo, mouse", "conditions": "day 7, topical application, control 56, vehicle 152", "experimental": "MC903 at 2 nM was applied to the right auricle of a 6-week-old male Balb/c (Japan SLC Inc.). Starting 8 h later, 5% norathyriol aqueous solution (1 mL of ethanol containing […] of norathyriol), betamethasone ointment, and delgocitinib ointment were applied to the auricle for 7 days. The measurement of auricular skin swelling was calculated by calipers. The day on which the first application of the compound was made was defined as day 0. Betamethasone and delgocitinib are currently in clinical use in atopic dermatitis and were used as control drugs in this example.\nThe mouse IL-4 ELISA kit (R&D) was used for this measurement."}},
  "data": [
    {"molecule": "O=c1c2cc(O)c(O)cc2oc2cc(O)cc(O)c12", "note": "[norathyriol, 1,3,6,7-tetrahydroxyxanthone]", "values": [
      {"measurement": "TNFα secretion", "setting": "TNFα", "value": 64.13, "unit": "pg/mL"},
      {"measurement": "phospho-NIK band (immunoblotting)", "setting": "NIK; 100 ng/mL BAFF 1 h after 23 h compound, 100 μM mangiferin, 20 μM 1,3,5,6-tetrahydroxyxanthone, 10 μM others", "value": "fainter"},
      {"measurement": "inhibition of NIK activity compared with mangiferin", "setting": "NIK; general statement in the description, referring to the examples", "value": "more inhibition of NIK activity than mangiferin"},
      {"measurement": "population IgM positive and IgD positive (mature B cells)", "setting": "[1]; control 0, BAFF only 45.6", "value": 0.062, "unit": "%"},
      {"measurement": "population IgM positive and IgD negative (immature B cells)", "setting": "[1]; control 0.529, BAFF only 42.3", "value": 1.46, "unit": "%"},
      {"measurement": "population IgM negative and IgD negative (pre-B cells)", "setting": "[1]; control 99.5, BAFF only 11.7", "value": 98.5, "unit": "%"},
      {"measurement": "frequency of diarrhea", "setting": "[2]", "value": "showed a marked decrease in the frequency of diarrhea"},
      {"measurement": "CD80 expression (CD11b positive and F4/80 positive)", "setting": "[3]", "value": "markedly reduced"},
      {"measurement": "IL-4 secretion", "setting": "IL-4", "value": 94, "unit": "pg/mL"}
    ]}
  ]
}
